Literature values, collected in US8273880B2, “Pyrazole compounds with inhibitory activity against ROS kinase” (Korea Institute of Science and Technology, priority 2009, dated 2012).
pIC50: −log10 of the molar value.

Biological target: ROS kinase (Homo sapiens, UniProt P08922)
Design: literature Reaction Biology Corporation
Settings: Data from Reaction Biology corporation (website); read-out: Inhibitory Activity against ROS (IC50); cited from earlier work

ROS kinase, sequence (P08922 28-2347): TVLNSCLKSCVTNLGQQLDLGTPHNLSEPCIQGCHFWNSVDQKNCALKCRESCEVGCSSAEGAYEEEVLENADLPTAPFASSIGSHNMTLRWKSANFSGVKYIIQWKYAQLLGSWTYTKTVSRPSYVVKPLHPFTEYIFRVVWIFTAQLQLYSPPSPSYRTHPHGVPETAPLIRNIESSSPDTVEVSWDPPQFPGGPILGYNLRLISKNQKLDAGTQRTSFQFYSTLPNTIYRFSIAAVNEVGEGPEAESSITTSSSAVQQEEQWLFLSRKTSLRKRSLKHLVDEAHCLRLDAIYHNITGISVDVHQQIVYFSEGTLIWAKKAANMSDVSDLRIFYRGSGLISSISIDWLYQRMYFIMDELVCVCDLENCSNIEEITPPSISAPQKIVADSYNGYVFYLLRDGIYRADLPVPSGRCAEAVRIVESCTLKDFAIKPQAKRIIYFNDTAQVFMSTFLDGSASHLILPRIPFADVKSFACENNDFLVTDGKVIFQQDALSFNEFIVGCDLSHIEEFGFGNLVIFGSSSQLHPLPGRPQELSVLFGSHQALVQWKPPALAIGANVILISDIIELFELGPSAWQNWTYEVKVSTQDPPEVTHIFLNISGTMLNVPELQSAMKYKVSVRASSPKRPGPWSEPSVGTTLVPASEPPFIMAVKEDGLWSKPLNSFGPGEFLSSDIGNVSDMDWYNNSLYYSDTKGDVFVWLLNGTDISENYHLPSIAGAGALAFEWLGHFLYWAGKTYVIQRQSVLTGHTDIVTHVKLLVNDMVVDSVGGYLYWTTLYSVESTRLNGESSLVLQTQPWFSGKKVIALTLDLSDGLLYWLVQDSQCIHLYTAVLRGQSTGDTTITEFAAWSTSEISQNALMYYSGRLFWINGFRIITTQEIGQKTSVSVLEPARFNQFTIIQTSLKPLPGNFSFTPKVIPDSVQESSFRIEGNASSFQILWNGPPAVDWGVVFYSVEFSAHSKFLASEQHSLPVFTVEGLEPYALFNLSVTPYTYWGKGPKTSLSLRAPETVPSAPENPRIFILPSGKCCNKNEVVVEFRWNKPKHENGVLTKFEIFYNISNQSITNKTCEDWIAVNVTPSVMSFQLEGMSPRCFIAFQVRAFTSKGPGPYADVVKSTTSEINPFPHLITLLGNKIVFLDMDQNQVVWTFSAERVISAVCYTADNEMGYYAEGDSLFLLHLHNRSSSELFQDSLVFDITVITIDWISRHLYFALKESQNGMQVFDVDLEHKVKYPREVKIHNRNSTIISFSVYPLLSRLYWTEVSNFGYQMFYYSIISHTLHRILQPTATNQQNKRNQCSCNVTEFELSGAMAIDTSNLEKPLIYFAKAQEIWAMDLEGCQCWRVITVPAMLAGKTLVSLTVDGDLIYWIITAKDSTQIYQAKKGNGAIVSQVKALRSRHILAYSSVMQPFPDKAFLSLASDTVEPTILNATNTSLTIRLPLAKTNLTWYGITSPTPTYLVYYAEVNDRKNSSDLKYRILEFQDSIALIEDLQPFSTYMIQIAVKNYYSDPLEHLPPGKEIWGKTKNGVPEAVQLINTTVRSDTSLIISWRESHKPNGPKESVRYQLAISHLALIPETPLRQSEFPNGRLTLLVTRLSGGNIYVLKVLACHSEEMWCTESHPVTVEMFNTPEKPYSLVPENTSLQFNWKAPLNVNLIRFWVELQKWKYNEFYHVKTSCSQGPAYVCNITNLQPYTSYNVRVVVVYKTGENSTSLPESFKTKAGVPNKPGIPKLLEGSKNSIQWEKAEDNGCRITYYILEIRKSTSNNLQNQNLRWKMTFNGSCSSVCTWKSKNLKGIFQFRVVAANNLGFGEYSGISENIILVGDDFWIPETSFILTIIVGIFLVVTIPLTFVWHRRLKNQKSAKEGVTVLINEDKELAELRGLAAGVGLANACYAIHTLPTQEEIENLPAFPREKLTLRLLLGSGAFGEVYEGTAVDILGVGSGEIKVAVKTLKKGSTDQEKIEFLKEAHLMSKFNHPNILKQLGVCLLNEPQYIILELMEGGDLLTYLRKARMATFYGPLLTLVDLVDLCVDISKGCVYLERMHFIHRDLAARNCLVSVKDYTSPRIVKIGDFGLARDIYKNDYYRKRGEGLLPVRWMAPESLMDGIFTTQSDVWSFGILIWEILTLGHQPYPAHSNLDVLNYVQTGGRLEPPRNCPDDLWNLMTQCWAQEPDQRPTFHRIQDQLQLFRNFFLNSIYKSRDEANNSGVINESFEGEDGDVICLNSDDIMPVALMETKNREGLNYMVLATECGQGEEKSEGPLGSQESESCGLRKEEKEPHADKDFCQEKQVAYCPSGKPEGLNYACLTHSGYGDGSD

For COc1cc2ncnc(Nc3cccc(Cl)c3)c2cc1OC [AG1478], the pIC50 is given as 4.87.
